Experimental data as given in patent publication EP0774465A1, “Penem derivatives and antimicrobial agents containing the same” (priority 1995, dated 1997).
In brackets after ≈: the same amount, converted by molar mass. Like-named read-outs stand apart in the source and are kept apart here.

Experiments:
MRSA 31 = assay: Antibacterial activity (MIC) against MRSA 31; format: cell-based, methicillin-resistant Staphylococcus aureus; conditions: for MIC: Staphylococcus aureus, MRSA, read-out: antibacterial activities (MIC)
Excerpt: (§1) With respect to compounds (I) of the present invention obtained as described above, their general antibacterial activities and their antibacterial activities (MIC) against various methicillin-resistant strains of Staphylococcus aureus (methicillin-resistant Staphylococcus aureus: MRSA) were investigated. The results will be shown in Table 1, in which the test compounds are indicated by the numbers of their working examples to be described subsequently. Further, as the general antibacterial activities, those of Staphylococcus aureus 209P JC-1 and Escherichia coli NIHJ JC-2 were used.
(§2) (The unit for the figures in the table is µg/mℓ.)

[1] = system: Escherichia coli NIHJ JC-2; assay: General antibacterial activity (MIC) against Escherichia coli NIHJ JC-2; format: cell-based; conditions: for MIC: Escherichia coli; for antibacterial activities (MIC): NIHJ JC-2, 10^6 cfu/mℓ
Excerpt: as §1, §2

[2] = system: Staphylococcus aureus 209P JC-1; assay: General antibacterial activity (MIC) against Staphylococcus aureus 209P JC-1; format: cell-based; conditions: for MIC: Staphylococcus aureus, read-out: antibacterial activities (MIC)
Excerpt: as §1, §2

MRSA 33 = assay: Antibacterial activity (MIC) against MRSA 33; format: cell-based, methicillin-resistant Staphylococcus aureus; conditions: for MIC: Staphylococcus aureus, MRSA, read-out: antibacterial activities (MIC)
Excerpt: as §1, §2

[3] = NIHJJC2, NIHJ JC-2, 10^6 cfu/mℓ, read-out: antibacterial activities (MIC)

Row | Molecule | MIC [1, 3] | MIC ([2]; 209P JC-1, 10^6 cfu/mℓ) | MIC (MRSA 31; MRSA 31, 10^6 cfu/mℓ) | MIC (MRSA 33; MRSA 33, 10^6 cfu/mℓ) | other results
1 | C[C@H](F)[C@H]1C(=O)N2C(C(=O)O)=C(SC3CCN(c4ccccc4)C3)S[C@H]12 (single isomer, unassigned) [Ex. 107 (Isomer A)] | > 25 µg/mL | 0.1 µg/mL (≈ 0.253 µM) | – | – | antibacterial activities (MIC) (MRSA 31; MRSA 31, 10^6 cfu/mℓ): 1.56 µg/mL; antibacterial activities (MIC) (MRSA 33; MRSA 33, 10^6 cfu/mℓ): 1.56 µg/mL
2 | C[C@H](F)[C@H]1C(=O)N2C(C(=O)O)=C(SC3CCN(c4ccccc4)C3)S[C@H]12 (single isomer, unassigned) [Ex. 107 (Isomer B)] | – | – | – | – | antibacterial activities (MIC) (MRSA 31; MRSA 31, 10^6 cfu/mℓ): 3.13 µg/mL; antibacterial activities (MIC) [1]: 50 µg/mL; antibacterial activities (MIC) ([2]; 209P JC-1, 10^6 cfu/mℓ): 0.1 µg/mL; antibacterial activities (MIC) (MRSA 33; MRSA 33, 10^6 cfu/mℓ): 3.13 µg/mL
3 | C[C@H](O)[C@@H]1C(=O)N2C(C(=O)O)=C(SCC(=O)NCc3ccccc3)S[C@H]12 [Ex. 13, (5R,6R)-2-(N-benzylcarbamoylmethyl)thio-6-((S)-1-hydroxyethyl)penem-3-carboxylic acid] | 3.13 µg/mL (≈ 7.93 µM) | 0.39 µg/mL (≈ 0.989 µM) | 12.5 µg/mL (≈ 31.7 µM) | 12.5 µg/mL (≈ 31.7 µM) | –
4 | CSC1=C(C(=O)O)N2C(=O)[C@@H]([C@H](C)O)[C@H]2S1 [Ex. 40, (5R,6R)-6-((S)-1-hydroxyethyl)-2-methylthiopenem-3-carboxylic acid] | 0.39 µg/mL (≈ 1.49 µM) | 0.39 µg/mL (≈ 1.49 µM) | 12.5 µg/mL (≈ 47.8 µM) | 12.5 µg/mL (≈ 47.8 µM) | –
5 | CCSC1=C(C(=O)O)N2C(=O)[C@@H]([C@H](C)O)[C@H]2S1 [Ex. 41, (5R,6R)-6-((S)-1-hydroxyethyl)-2-ethylthiopenem-3-carboxylic acid] | 0.2 µg/mL (≈ 0.726 µM) | 0.2 µg/mL (≈ 0.726 µM) | 12.5 µg/mL (≈ 45.4 µM) | 12.5 µg/mL (≈ 45.4 µM) | –
6 | C[C@H](O)[C@@H]1C(=O)N2C(C(=O)O)=C(SCc3ccccc3)S[C@H]12 [Ex. 42, (5R,6R)-6-((S)-1-hydroxyethyl)-2-benzylthiopenem-3-carboxylic acid] | 6.25 µg/mL (≈ 18.5 µM) | 0.1 µg/mL (≈ 0.296 µM) | 3.13 µg/mL (≈ 9.28 µM) | 3.13 µg/mL (≈ 9.28 µM) | –
7 | C[C@H](O)[C@@H]1C(=O)N2C(C(=O)O)=C(SCCc3ccccc3)S[C@H]12 [Ex. 43, (5R,6R)-6-((S)-1-hydroxyethyl)-2-phenethylthiopenem-3-carboxylic acid] | 12.5 µg/mL (≈ 35.6 µM) | 0.2 µg/mL (≈ 0.569 µM) | 6.25 µg/mL (≈ 17.8 µM) | 6.25 µg/mL (≈ 17.8 µM) | –
8 | CCCSC1=C(C(=O)O)N2C(=O)[C@@H]([C@H](C)O)[C@H]2S1 [Ex. 46, (5R,6R)-6-((S)-1-hydroxyethyl)-2-propylthiopenem-3-carboxylic acid] | 0.78 µg/mL (≈ 2.7 µM) | 0.39 µg/mL (≈ 1.35 µM) | 12.5 µg/mL (≈ 43.2 µM) | 12.5 µg/mL (≈ 43.2 µM) | –
9 | CC(C)SC1=C(C(=O)O)N2C(=O)[C@@H]([C@H](C)O)[C@H]2S1 [Ex. 47, (5R,6R)-6-((S)-1-hydroxyethyl)-2-(1-methylethyl)thiopenem-3-carboxylic acid] | 0.2 µg/mL (≈ 0.691 µM) | 0.2 µg/mL (≈ 0.691 µM) | 12.5 µg/mL (≈ 43.2 µM) | 12.5 µg/mL (≈ 43.2 µM) | –
10 | C[C@H](O)[C@@H]1C(=O)N2C(C(=O)O)=C(SCCF)S[C@H]12 [Ex. 48, (5R,6R)-6-((S)-1-hydroxyethyl)-2-(2-fluoroethyl)thiopenem-3-carboxylic acid] | – | – | – | – | MIC (MRSA 31): 12.5 µg/mL (≈ 42.6 µM); MIC ([1]; NIHJJC2, read-out: antibacterial activities (MIC)): 0.1 µg/mL (≈ 0.341 µM); MIC ([2]; 209P): 0.2 µg/mL (≈ 0.682 µM); MIC (MRSA 33): 12.5 µg/mL (≈ 42.6 µM)
11 | C[C@H](O)[C@@H]1C(=O)N2C(C(=O)O)=C(SC3Cc4ccccc4C3)S[C@H]12 [Ex. 71, (5R,6R)-6-((S)-1-hydroxyethyl)-2-(2-indanyl)thiopenem-3-carboxylic acid] | 6.25 µg/mL (≈ 17.2 µM) | 0.05 µg/mL (≈ 0.138 µM) | 3.13 µg/mL (≈ 8.61 µM) | 1.56 µg/mL (≈ 4.29 µM) | –
12 | C[C@H](O)[C@@H]1C(=O)N2C(C(=O)O)=C(SCCc3ccccn3)S[C@H]12 [Ex. 73, (5R,6R)-6-((S)-1-hydroxyethyl)-2-[2-(2-pyridyl)ethyl]thiopenem-3-carboxylic acid] | 0.78 µg/mL (≈ 2.21 µM) | 0.05 µg/mL (≈ 0.142 µM) | 6.25 µg/mL (≈ 17.7 µM) | 6.25 µg/mL (≈ 17.7 µM) | –
13 | C[C@H](O)[C@@H]1C(=O)N2C(C(=O)O)=C(SCc3ccc4ccccc4c3)S[C@H]12 [Ex. 76, (5R,6R)-6-((S)-1-hydroxyethyl)-2-(2-naphthyl)methylthiopenem-3-carboxylic acid] | 12.5 µg/mL (≈ 32.3 µM) | 0.1 µg/mL (≈ 0.258 µM) | 3.13 µg/mL (≈ 8.08 µM) | 3.13 µg/mL (≈ 8.08 µM) | –
14 | C[C@H](O)[C@@H]1C(=O)N2C(C(=O)O)=C(S[C@H]3CCN(CCF)C3)S[C@H]12 [Ex. 79, (5R,6R)-6-((S)-l-hydroxyethyl)-2-[(S)-1-(2-fluoroethyl)pyrrolidin-3-yl]thiopenem-3-carboxylic acid] | 0.1 µg/mL (≈ 0.276 µM) | 0.1 µg/mL (≈ 0.276 µM) | 6.25 µg/mL (≈ 17.2 µM) | 6.25 µg/mL (≈ 17.2 µM) | –
15 | C[C@H](O)[C@@H]1C(=O)N2C(C(=O)O)=C(SC3CCc4ccccc43)S[C@H]12 (stereo partly drawn) [Ex. 81, (5R,6R)-6-((S)-1-hydroxyethyl)-2-(1-indanyl)thiopenem-3-carboxylic acid] | 6.25 µg/mL (≈ 17.2 µM) | 0.1 µg/mL (≈ 0.275 µM) | 3.13 µg/mL (≈ 8.61 µM) | 3.13 µg/mL (≈ 8.61 µM) | –
16 | C[C@H](O)[C@@H]1C(=O)N2C(C(=O)O)=C(S[C@H]3CCN(CC(=O)c4ccccc4)C3)S[C@H]12 [Ex. 88, (5R,6R)-6-((S)-1-hydroxyethyl)-2-[(S)-1-(2-oxo-2-phenylethyl)pyrrolidin-3-ylthio]penem-3-carboxylic acid] | 0.39 µg/mL (≈ 0.898 µM) | 0.2 µg/mL (≈ 0.46 µM) | 6.25 µg/mL (≈ 14.4 µM) | 6.25 µg/mL (≈ 14.4 µM) | –
17 | CC(=N)N1CC[C@H](SC2=C(C(=O)O)N3C(=O)[C@@H]([C@H](C)O)[C@H]3S2)C1 [Ex. 89, (5R,6R)-6-((S)-1-hydroxyethyl)-2-[(S)-1-(1-iminoethyl)pyrrolidin-3-ylthio]penem-3-carboxylic acid] | 0.39 µg/mL (≈ 1.09 µM) | 0.1 µg/mL (≈ 0.28 µM) | 6.25 µg/mL (≈ 17.5 µM) | 6.25 µg/mL (≈ 17.5 µM) | –
18 | C[C@H](O)[C@@H]1C(=O)N2C(C(=O)O)=C(S[C@@H]3CN[C@H](CO)C3)S[C@H]12 [Ex. 94, (5R,6R)-6-((S)-1-hydroxyethyl)-2-[(2S,4S)-2-hydroxymethylpyrrolidin-4-ylthio]penem-3-carboxylic acid] | 0.2 µg/mL (≈ 0.577 µM) | 0.1 µg/mL (≈ 0.289 µM) | 6.25 µg/mL (≈ 18 µM) | 6.25 µg/mL (≈ 18 µM) | –
19 | CC(=N)N1CC[C@H](SC2=C(C(=O)O)N3C(=O)[C@H]([C@H](C)F)[C@H]3S2)C1 [Ex. 106, (5R,6R)-6-((S)-1-fluoroethyl)-2-[(S)-1-(1-iminoethyl)pyrrolidin-3-ylthio]penem-3-carboxylic acid] | 1.56 µg/mL (≈ 4.34 µM) | 0.05 µg/mL (≈ 0.139 µM) | 3.13 µg/mL (≈ 8.71 µM) | 3.13 µg/mL (≈ 8.71 µM) | –
20 | (5R,6R)-6-((S)-1-fluoroethyl)-2-methylthiopenem-3-carboxylic acid [Ex. 99] | – | – | – | – | antibacterial activities (MIC) (MRSA 31; MRSA 31, 10^6 cfu/mℓ): 6.25 µg/mL; antibacterial activities (MIC) [1]: 0.78 µg/mL; antibacterial activities (MIC) ([2]; 209P JC-1, 10^6 cfu/mℓ): 0.1 µg/mL; antibacterial activities (MIC) (MRSA 33; MRSA 33, 10^6 cfu/mℓ): 6.25 µg/mL
